According to publication PMC10253665, “Enhancing the Catalytic Activity of Thermo-Asparaginase from Thermococcus sibiricus by a Double Mesophilic-like Mutation in the Substrate-Binding Region” (International Journal of Molecular Sciences, 2023):

What was measured:
[1] = biological target: T1, TsA (L-asparaginase from Thermococcus sibiricus) (Thermococcus sibiricus, UniProt C6A532); test: direct Nesslerization (ammonia release); type: biochemical; conditions: 90 °C, Tris-HCl 0.05 M pH 9.0 (b36 says same conditions as mutant)
T1 construct: gene TSIB_1676
T1 sequence (C6A532 entry or part of it): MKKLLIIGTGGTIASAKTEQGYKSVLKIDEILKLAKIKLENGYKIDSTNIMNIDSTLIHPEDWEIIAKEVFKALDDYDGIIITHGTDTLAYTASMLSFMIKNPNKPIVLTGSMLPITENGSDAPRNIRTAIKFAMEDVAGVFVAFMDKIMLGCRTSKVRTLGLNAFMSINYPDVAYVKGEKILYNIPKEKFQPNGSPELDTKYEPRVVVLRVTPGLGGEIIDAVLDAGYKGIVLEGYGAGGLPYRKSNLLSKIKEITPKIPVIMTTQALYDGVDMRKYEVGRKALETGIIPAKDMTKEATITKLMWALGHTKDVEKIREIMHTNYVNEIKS

[2] = substrate: NC(=O)C[C@H](N)C(=O)O; test: direct Nesslerization (ammonia release); type: biochemical, Thermococcus sibiricus; conditions: 90 °C, glycine-NaOH 0.01 M pH 9.3, printed substrate range 20-250 μM

| Molecule | Km [1] [mM] | Km [2] [mM] |
| --- | --- | --- |
| NC(=O)C[C@H](N)C(=O)O [L-asparagine] | 3 |  |
| TsA (L-asparaginase from Thermococcus sibiricus) (Thermococcus sibiricus MM 739; D54G/T56Q) (protein) MKKLLIIGTGGTIASAKTEQGYKSVLKIDEILKLAKIKLENGYKIDSTNIMNIGSQLIHPEDWEIIAKEVFKALDDYDGIIITHGTDTLAYTASMLSFMIKNPNKPIVLTGSMLPITENGSDAPRNIRTAIKFAMEDVAGVFVAFMDKIMLGCRTSKVRTLGLNAFMSINYPDVAYVKGEKILYNIPKEKFQPNGSPELDTKYEPRVVVLRVTPGLGGEIIDAVLDAGYKGIVLEGYGAGGLPYRKSNLLSKIKEITPKIPVIMTTQALYDGVDMRKYEVGRKALETGIIPAKDMTKEATITKLMWALGHTKDVEKIREIMHTNYVNEIKS |  | 6 |
